Test results published in article PMC6681222, “Discovery and Rational Design of a Novel Bowman-Birk Related Protease Inhibitor” (Biomolecules, 2019).
≈ marks a conversion by molar mass, not a printed value. Entries after “also recorded” stand apart in the source; their conditions may differ. Bridge positions count the residues as written; N and C are the ends. Peptide text beside a SMILES is read from it.

Columns and labels:
C. albicans (NCYC 1467) = format: cell-based
Description: (§1) The MIC and MBC of the synthetic peptides were determined as previously described, using S. aureus (NCTC 10788), E. coli (NCTC 10418) and C. albicans (NCYC 1467), together with two species of resistant micro-organisms, methicillin-resistant S. aureus (MRSA) (ATCC 12493) and P. aeruginosa (ATCC 27853).

E. coli (NCTC 10418) = format: cell-based
Description: as §1

[1] = system: P. aeruginosa (ATCC 27853); format: cell-based
Description: as §1

S. aureus (NCTC 10788) = format: cell-based
Description: as §1

[2] = system: methicillin-resistant S. aureus (MRSA) (ATCC 12493); format: cell-based
Description: as §1

trypsin = target: T1, trypsin (Bos taurus, UniProt P00760); assay: Trypsin inhibition assay; format: biochemical
T1 construct: gene PRSS1
T1 sequence (P00760 24-246): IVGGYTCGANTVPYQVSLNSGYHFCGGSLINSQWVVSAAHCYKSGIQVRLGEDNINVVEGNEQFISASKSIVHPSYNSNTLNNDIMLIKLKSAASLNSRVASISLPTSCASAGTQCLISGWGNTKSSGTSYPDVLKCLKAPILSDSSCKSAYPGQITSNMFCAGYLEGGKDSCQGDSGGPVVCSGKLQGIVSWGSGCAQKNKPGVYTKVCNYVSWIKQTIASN
Description: (§2) The trypsin, chymotrypsin inhibition tests were performed as described previously. 10 µL tryptase (1 mg/mL, Calbiochem, UK) was added to the wells of a micro-titer plate containing 180 µL substrate (Boc-Phe-Ser-Arg-NHMec, obtained from Bachem, UK) (50 µM) and 20 µL synthetic replicates (0.1–100 µM) in a tryptase buffer, pH7.6, containing 0.05 M Tris, 0.15 M NaCl, and 0.2% (w/v) polyethylene glycol 6000 (final volume 210 µL).
The inhibition curves of the trypsin/chymotrypsin inhibition assay and tryptase inhibition assay were formed as outlined before.
(§3) The progress curves for the hydrolysis of the fluorogenic substrate were used to estimate an initial rate (Vi) to generate the Morrison plots. All of the progress curves and corresponding Morrison plots in the presence of each peptide of different concentrations are shown in Figure S4.

tryptase = target: T2, tryptase (Homo sapiens, UniProt Q15661); assay: Tryptase inhibition assay; format: biochemical; settings: substrate Boc-Phe-Ser-Arg-NHMec 50 µM, peptide 0.1-100 µM, tryptase buffer pH 7.6, Morrison plot; average of three independent experiments
T2 construct: purchased Calbiochem, UK
Description: as §2
(§4) The rate of hydrolysis of the substrate was monitored by measuring the rate of increase of fluorescence due to the release of 7–amino–4–methylcoumarin (AMC) at 460 nm (excitation 360 nm) in a FLUOstar OPTIMA multi-well plate reader. The inhibition curves of the trypsin/chymotrypsin inhibition assay and tryptase inhibition assay were formed as outlined before.
as §3

chymotrypsin = chymotrypsin (Bos taurus, UniProt P00766); assay: Chymotrypsin inhibition assay; format: biochemical; settings: fluorogenic substrate, AMC release (ex 360/em 460 nm), Morrison plot; average of three independent experiments
Description: as §2, §4
as §3, with “PPF-BBI and its analogues were tested for inhibitory activity against trypsin, chymotrypsin and tryptase, respectively. The” for “The”

horse erythrocytes = assay: Haemolysis test; format: cell-based; settings: 2% suspension of horse erythrocytes, 512 to 1 µM peptide, 4 h; 2% Triton X-100 = 100% haemolysis
Description: The haemolytic activity of each peptide was measured by incubating a range of final peptide concentrations from 512 to 1 µM in a two-fold dilution in a 2% suspension of horse erythrocytes, as described in a previous study.
Figure 4 (a) The cell viability of the cancer cell lines H460, H157, H23, H838, HT-29, PC-3, U251MG and HMEC-1 at 4 mM 5-FU (stripe bar), 100 µM and 10 µM PPF-BBI, F^8-PPF-BBI, K^16-PPF-BBI and Tat-loop. The control represents the cell viability without any treatments. The statistical significance of difference was analyzed by a one-way ANOVA (* p < 0.05, **** p < 0.0001). (b) The haemolysis rates of PPF-BBI, F^8-PPF-BBI, K^16-PPF-BBI and Tat-loop on erythrocytes after being incubated for 4 h. The incubation of erythrocytes with 2% (v/v) Triton X-100 was designated as a positive control (100% haemolysis).

T2 sequence (Q15661 31-275): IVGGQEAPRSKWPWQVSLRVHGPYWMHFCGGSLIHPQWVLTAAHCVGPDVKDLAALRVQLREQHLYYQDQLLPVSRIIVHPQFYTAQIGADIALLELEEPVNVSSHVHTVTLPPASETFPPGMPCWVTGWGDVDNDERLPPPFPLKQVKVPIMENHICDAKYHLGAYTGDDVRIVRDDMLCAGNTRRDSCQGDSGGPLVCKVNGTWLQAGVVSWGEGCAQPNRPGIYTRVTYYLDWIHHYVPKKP

SMILES | MBC (C. albicans (NCYC 1467)) [µM] | MIC (C. albicans (NCYC 1467)) [µM] | MBC (E. coli (NCTC 10418)) [µM] | MIC (E. coli (NCTC 10418)) [µM] | MBC [1] [µM] | MIC [1] [µM] | MBC (S. aureus (NCTC 10788)) [µM] | MIC (S. aureus (NCTC 10788)) [µM] | MBC [2] [µM] | MIC [2] [µM] | Ki (trypsin) [nM] | Ki (tryptase) [µM] | Ki (µM) of Chymotrypsin (chymotrypsin) | Ki (µM) of Tryptase (tryptase) | Ki (µM) of Trypsin (trypsin; fluorogenic substrate, AMC release (ex 360/em 460 nm), Morrison plot, average of three independent experiments) | Ki (chymotrypsin) [µM] | Haemolytic activity (horse erythrocytes)
N=C(N)NCCC[C@H](NC(=O)[C@H](CCCNC(=N)N)NC(=O)[C@H](CCCNC(=N)N)NC(=O)[C@H](CCC(N)=O)NC(=O)[C@H](CCCNC(=N)N)NC(=O)[C@H](CCCNC(=N)N)NC(=O)[C@H](CCCCN)NC(=O)[C@H](CCCCN)NC(=O)[C@@H](N)CCCNC(=N)N)C(=O)O [Tat, reference compound] | >512 | >512 | 256 (≈ 343 µg/mL) | 256 (≈ 343 µg/mL) | >512 | >512 | 512 (≈ 686 µg/mL) | 512 (≈ 686 µg/mL) | >512 | >512 | – | – | – | – | – | – | –
CC[C@H](C)[C@@H]1NC(=O)[C@H](CO)NC(=O)[C@H](CCCCN)NC(=O)[C@H]([C@@H](C)O)NC(=O)[C@H](Cc2c[nH]c3ccccc23)NC(=O)[C@@H](NC(=O)CNC(=O)[C@H](CCCNC(=N)N)NC(=O)[C@H](CC(C)C)NC(=O)[C@H](C)N)CSSC[C@@H](C(=O)N[C@@H](CCCCN)C(N)=O)NC(=O)[C@@H]2CCCN2C(=O)[C@H](CCCCN)NC(=O)[C@@H]2CCCN2C(=O)[C@@H]2CCCN2C1=O [K^16-PPF-BBI] (H-ALRGCWTKSIPPKPCK-NH2; disulfide 5-15) | 128 (≈ 228 µg/mL) | 128 (≈ 228 µg/mL) | 128 (≈ 228 µg/mL) | 128 (≈ 228 µg/mL) | 512 (≈ 912 µg/mL) | 512 (≈ 912 µg/mL) | 64 (≈ 114 µg/mL) | 64 (≈ 114 µg/mL) | 512 (≈ 912 µg/mL) | 512 (≈ 912 µg/mL) | 112 | 9.67 | N.I.* | – | – | – | –
CC[C@H](C)[C@@H]1NC(=O)[C@H](CO)NC(=O)[C@H](CCCCN)NC(=O)[C@H]([C@@H](C)O)NC(=O)[C@H](Cc2c[nH]c3ccccc23)NC(=O)[C@@H](N)CSSC[C@@H](C(=O)O)NC(=O)[C@@H]2CCCN2C(=O)[C@H](CCCCN)NC(=O)[C@@H]2CCCN2C(=O)[C@@H]2CCCN2C1=O [TIL, reference compound] | >512 | >512 | >512 | >512 | >512 | >512 | >512 | >512 | >512 | >512 | – | – | N.I.* | lost their inhibitory activity; also recorded: N.I.* | – | – | –
CC[C@H](C)[C@@H]1NC(=O)[C@H](CO)NC(=O)[C@H](Cc2ccccc2)NC(=O)[C@H]([C@@H](C)O)NC(=O)[C@H](Cc2c[nH]c3ccccc23)NC(=O)[C@@H](NC(=O)CNC(=O)[C@H](CCCNC(=N)N)NC(=O)[C@H](CC(C)C)NC(=O)[C@H](C)N)CSSC[C@@H](C(=O)N2CCC[C@H]2C(N)=O)NC(=O)[C@@H]2CCCN2C(=O)[C@H](CCCCN)NC(=O)[C@@H]2CCCN2C(=O)[C@@H]2CCCN2C1=O [F^8-PPF-BBI] (H-ALRGCWTFSIPPKPCP-NH2; disulfide 5-15) | >512 | >512 | >512 | >512 | >512 | >512 | >512 | >512 | >512 | >512 | – | – | – | N.I.* | N.I.* | 0.85 | –
CC[C@H](C)[C@@H]1NC(=O)[C@H](CO)NC(=O)[C@H](CCCCN)NC(=O)[C@H]([C@@H](C)O)NC(=O)[C@H](Cc2c[nH]c3ccccc23)NC(=O)[C@@H](NC(=O)[C@H](CCCNC(=N)N)NC(=O)[C@H](CCCNC(=N)N)NC(=O)[C@H](CCCNC(=N)N)NC(=O)[C@H](CCC(N)=O)NC(=O)[C@H](CCCNC(=N)N)NC(=O)[C@H](CCCNC(=N)N)NC(=O)[C@H](CCCCN)NC(=O)[C@H](CCCCN)NC(=O)[C@@H](N)CCCNC(=N)N)CSSC[C@@H](C(=O)O)NC(=O)[C@@H]2CCCN2C(=O)[C@H](CCCCN)NC(=O)[C@@H]2CCCN2C(=O)[C@@H]2CCCN2C1=O [Tat-loop] (H-RKKRRQRRRCWTKSIPPKPC-OH; disulfide 10-20) | 8 (≈ 20.6 µg/mL) | 4 (≈ 10.3 µg/mL) | 128 (≈ 330 µg/mL) | 128 (≈ 330 µg/mL) | 256 (≈ 660 µg/mL) | 256 (≈ 660 µg/mL) | 128 (≈ 330 µg/mL) | 128 (≈ 330 µg/mL) | 512 (≈ 1320 µg/mL) | 256 (≈ 660 µg/mL) | 607 | – | N.I.* | lost their inhibitory activity; also recorded: N.I.* | – | – | low haemolytic activity
CC[C@H](C)[C@@H]1NC(=O)[C@H](CO)NC(=O)[C@H](CCCCN)NC(=O)[C@H]([C@@H](C)O)NC(=O)[C@H](Cc2c[nH]c3ccccc23)NC(=O)[C@@H](NC(=O)CNC(=O)[C@H](CCCNC(=N)N)NC(=O)[C@H](CC(C)C)NC(=O)[C@H](C)N)CSSC[C@@H](C(=O)N2CCC[C@H]2C(N)=O)NC(=O)[C@@H]2CCCN2C(=O)[C@H](CCCCN)NC(=O)[C@@H]2CCCN2C(=O)[C@@H]2CCCN2C1=O [PPF-BBI] (H-ALRGCWTKSIPPKPCP-NH2; disulfide 5-15) | 512 (≈ 897 µg/mL) | 512 (≈ 897 µg/mL) | 128 (≈ 224 µg/mL) | 128 (≈ 224 µg/mL) | >512 | >512 | 128 (≈ 224 µg/mL) | 128 (≈ 224 µg/mL) | >512 | >512 | 170 | 30.7 | N.I.* | – | – | – | –
